Source: PMC6104039 (Nature Communications, 2018)
“And” between values parts separate entries of the source, which are not always exact repeats. Equal values may be shown once.

How the values were obtained:
[1] = P053 accumulation in tissues, LC-MS/MS; format: in vivo, mice; conditions: 5 mg/kg daily for 2 weeks
adipose tissue = test: Ceramide and SM species in epididymal adipose tissue; format: in vivo, mice; conditions: for Ceramide 18:1/16:0 content of white adipose tissue / Ceramide 18:1/18:0 content of white adipose tissue / Ceramide 18:1/20:0 content of white adipose tissue / Ceramide 18:1/22:0 content of white adipose tissue / Ceramide 18:1/24:0 content of white adipose tissue / Ceramide 18:1/24:1 content of white adipose tissue / Ceramide 18:2/18:0 content of white adipose tissue / Ceramide 18:2/22:0 content of white adipose tissue / Ceramide 18:2/24:0 content of white adipose tissue / Ceramide 18:2/24:1 content of white adipose tissue / SM 34:1 content of white adipose tissue / SM 34:2 content of white adipose tissue / SM 36:1 content of white adipose tissue / SM 36:2 content of white adipose tissue / SM 38:1 content of white adipose tissue / SM 38:2 content of white adipose tissue / SM 40:1 content of white adipose tissue / SM 40:2 content of white adipose tissue / SM 42:1 content of white adipose tissue / SM 42:2 content of white adipose tissue / SM 42:3 content of white adipose tissue: individual values; for Ceramide 18:1/16:0 content of white adipose tissue / Ceramide 18:1/18:0 content of white adipose tissue / Ceramide 18:1/20:0 content of white adipose tissue / Ceramide 18:1/22:0 content of white adipose tissue / Ceramide 18:1/24:0 content of white adipose tissue / Ceramide 18:1/24:1 content of white adipose tissue / Ceramide 18:2/18:0 content of white adipose tissue / Ceramide 18:2/22:0 content of white adipose tissue / Ceramide 18:2/24:0 content of white adipose tissue / Ceramide 18:2/24:1 content of white adipose tissue: raw data Fig 3l; for SM 34:1 content of white adipose tissue / SM 34:2 content of white adipose tissue / SM 36:1 content of white adipose tissue / SM 36:2 content of white adipose tissue / SM 38:1 content of white adipose tissue / SM 38:2 content of white adipose tissue / SM 40:1 content of white adipose tissue / SM 40:2 content of white adipose tissue / SM 42:1 content of white adipose tissue / SM 42:2 content of white adipose tissue / SM 42:3 content of white adipose tissue: raw data Fig 3m
Experimental: Male C57BL6/J mice were obtained from the Animal Resources Centre in Perth (WA, Australia). Mice were housed at 22 ± 1 °C with a controlled 12:12 h light-dark cycle and had ad libitum access to water and either chow (8% calories from fat) or HFD (45% calories from fat)[66] for 4–6 weeks. […] Treatment was commenced at the same time as mice were randomised to dietary groups. The experiments were approved by the UNSW animal care and ethics committee (ACEC 15/48B), and followed guidelines issued by the National Health and Medical Research Council of Australia.
Lipids were extracted from frozen tissue samples or cells using a two-phase procedure with methyl-tert-butyl ether (MTBE)/methanol/water (10:3:2.5, v/v/v)[67]. Frozen tissue samples (~20 mg) were homogenized in 0.2 mL methanol containing 0.01% butylated hydroxytoluene (BHT), using a Precellys 24 homogenizer and Cryolys cooling unit (Bertin Technologies) with CK14 (1.4-mm ceramic) beads. The homogenates were spiked with an internal standard mixture comprising 5 nmole 19:0/19:0 phosphatidylcholine and 2 nmole each of 17:0/17:0 phosphatidylethanolamine, 17:0/17:0 phosphatidylserine, 17:0/17:0 d5-diacylglycerol, 17:0/17:0 phosphatidylglycerol, 14:0/14:0/14:0/14:0 cardiolipin, 18:1/12:0 SM, 18:1/17:0 ceramide, 18:1/12:0 glucosylceramide, 18:1/12:0 lactosylceramide, 18:1/12:0 sulfatide (all from Avanti Polar Lipids, USA), and 17:0/17:0/17:0 TAG (Cayman Chemical, USA), then transferred to 10 mL screw cap glass tubes. The homogenization tubes containing beads were then washed with another 0.3 mL methanol, and this wash was combined with the first methanol extract, after which 1.7 mL MTBE was added and the samples were sonicated in an ice-cold sonicating water bath (Thermoline Scientific, Australia) for 30 min. Phase separation was induced by addition of 417 µL of mass spectrometry-grade water followed by vortexing and centrifugation at 1000 × g for 10 min. The upper organic phase was collected into 5 mL glass tubes. The lower phase was re-extracted by adding 1 mL MTBE, 300 μL methanol, and 250 μL water. The organic phases were combined in the 5 mL glass tubes and dried under vacuum in a Savant SC210 SpeedVac (Thermo Scientific), then reconstituted in 500 μL methanol and stored at −20 °C until analysis.
Lipidomic profiling was performed on a QExactive Plus mass spectrometer with heated electrospray ionization (HESI) probe and a Dionex UltiMate 2000 LC pump (Thermo Fisher Scientific). Extracts were resolved on a 2.1 × 100 mm Waters Acquity C18 UPLC column (1.7 µm […]), using a binary gradient in which mobile phase A consisted of acetonitrile:water (60:40), 10 mM ammonium formate, 0.1% formic acid; and mobile phase B was isopropanol:acetonitrile (90:10), 10 mM ammonium formate, 0.1% formic acid[68]. The flow rate was 260 µL/min and column oven 55 °C. Data was acquired in full scan/data-dependent MS^2 mode (full scan resolution 70,000 FWHM, scan range 400–1200 m/z). The ten most abundant ions in each cycle were subjected to MS^2 using an isolation window of 1.4 m/z, collision energy 30 eV, resolution 17,500, maximum integration time 110 ms and dynamic exclusion window 10 s. An exclusion list of background ions was used based on a solvent blank. LipidSearch v4.1.30 software (ThermoFisher Scientific) was used for chromatogram alignment, peak identification and integration. Each lipid peak was manually verified for column elution time and characteristic fragment ions. Data were then exported to an Excel spreadsheet for normalisation of each lipid to its class-specific internal standard, and lipid concentrations were calculated relative to the internal standard.

CerS1 = target: T1, CerS1 (Homo sapiens, UniProt P27544); test: CerS1 activity as a function of substrate concentration (Vmax, Khalf, mode of inhibition); format: biochemical; parameters: expressed in transfected cells; conditions: dihydrosphingosine and C18:0-CoA substrates
T1 sequence (P27544 1-350): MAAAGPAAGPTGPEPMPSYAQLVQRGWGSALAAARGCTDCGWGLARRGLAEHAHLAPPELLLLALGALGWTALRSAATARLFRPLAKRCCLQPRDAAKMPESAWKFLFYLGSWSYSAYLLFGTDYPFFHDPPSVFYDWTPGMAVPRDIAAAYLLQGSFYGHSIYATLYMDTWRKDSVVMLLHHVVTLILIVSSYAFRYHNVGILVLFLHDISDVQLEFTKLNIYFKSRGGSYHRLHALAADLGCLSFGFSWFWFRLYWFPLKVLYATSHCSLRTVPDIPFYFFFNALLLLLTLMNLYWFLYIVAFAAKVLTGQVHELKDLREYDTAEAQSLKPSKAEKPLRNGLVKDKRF

## C[C@@](N)(CO)CCc1ccc(OCc2ccc(Cl)c(Cl)c2)cc1 [P053, (S)-2-amino-4-(4-(3,4-dichlorobenzyloxy)phenyl)-2-methylbutan-1-ol]
[1]
  compound distribution in tissues: higher in liver and kidney than in muscle and adipose tissue
  levels of the compound in brain tissue compared to SkM: three-fold lower
  uptake in the liver: substantial uptake
Adipose tissue; Chow + P053
  Ceramide 18:1/16:0 content of white adipose tissue: 10.929 and 4.227 and 17.193 and 8.156 and 14.726 and 6.210 and 17.172 and 6.636 and 12.272 and 15.061
  Ceramide 18:1/18:0 content of white adipose tissue: 2.114 and 0.846 and 3.339 and 1.520 and 2.375 and 1.130 and 3.918 and 1.468 and 2.718 and 2.056
  Ceramide 18:1/20:0 content of white adipose tissue: 1.814 and 0.867 and 3.626 and 1.453 and 2.395 and 1.178 and 2.617 and 1.217 and 2.593 and 1.998
  Ceramide 18:1/22:0 content of white adipose tissue: 4.127 and 2.201 and 7.564 and 3.535 and 5.536 and 3.049 and 7.800 and 3.557 and 5.828 and 4.572
  Ceramide 18:1/24:0 content of white adipose tissue: 6.125 and 3.020 and 12.234 and 6.320 and 9.940 and 4.064 and 14.430 and 5.790 and 10.017 and 7.844
  Ceramide 18:1/24:1 content of white adipose tissue: 10.504 and 6.110 and 22.417 and 11.780 and 19.731 and 7.603 and 26.592 and 10.551 and 18.107 and 16.532
  Ceramide 18:2/18:0 content of white adipose tissue: 1.183 and 0.312 and 1.256 and 0.618 and 1.358 and 0.382 and 1.268 and 0.527 and 0.931 and 1.219
  Ceramide 18:2/22:0 content of white adipose tissue: 2.177 and 0.918 and 3.608 and 1.721 and 2.577 and 1.375 and 2.989 and 1.482 and 2.309 and 2.564
  Ceramide 18:2/24:0 content of white adipose tissue: 4.508 and 1.750 and 7.166 and 3.688 and 5.287 and 2.715 and 7.269 and 3.296 and 4.451 and 6.052
  Ceramide 18:2/24:1 content of white adipose tissue: 4.820 and 2.648 and 9.228 and 4.871 and 7.660 and 3.147 and 9.518 and 3.932 and 5.805 and 6.812
  SM 34:1 content of white adipose tissue: 276.61 and 66.44 and 226.46 and 212.93 and 276.78 and 111.51 and 327.37 and 118.77 and 188.15 and 267.47
  SM 34:2 content of white adipose tissue: 23.85 and 2.33 and 6.66 and 4.19 and 4.83 and 3.15 and 5.28 and 2.34 and 3.58 and 6.77
  SM 36:1 content of white adipose tissue: 33.66 and 9.97 and 25.23 and 24.39 and 28.26 and 12.44 and 31.61 and 15.13 and 21.89 and 30.09
  SM 36:2 content of white adipose tissue: 12.60 and 1.84 and 8.68 and 8.41 and 12.18 and 3.45 and 12.76 and 4.74 and 5.44 and 12.73
  SM 38:1 content of white adipose tissue: 22.37 and 7.77 and 26.08 and 17.58 and 21.03 and 10.59 and 19.70 and 11.77 and 20.28 and 19.73
  SM 38:2 content of white adipose tissue: 5.83 and 1.41 and 5.52 and 4.51 and 5.60 and 2.81 and 4.44 and 2.01 and 3.84 and 6.42
  SM 40:1 content of white adipose tissue: 44.87 and 18.02 and 56.10 and 41.83 and 53.17 and 20.49 and 52.33 and 23.88 and 40.81 and 43.57
  SM 40:2 content of white adipose tissue: 12.98 and 4.14 and 11.80 and 8.16 and 10.55 and 6.16 and 10.26 and 5.10 and 7.07 and 11.44
  SM 42:1 content of white adipose tissue: 28.12 and 11.04 and 39.22 and 23.51 and 29.01 and 11.65 and 31.95 and 14.81 and 26.21 and 27.56
  SM 42:2 content of white adipose tissue: 81.27 and 33.26 and 95.54 and 83.35 and 95.85 and 36.01 and 109.30 and 44.61 and 71.06 and 85.15
  SM 42:3 content of white adipose tissue: 22.64 and 7.14 and 18.55 and 16.77 and 22.11 and 8.66 and 22.41 and 8.50 and 11.09 and 21.29
Adipose tissue; HFD + P053
  Ceramide 18:1/16:0 content of white adipose tissue: 7.201 and 8.054 and 16.149 and 4.934 and 4.539 and 15.378 and 9.982 and 4.818 and 11.537 and 7.369
  Ceramide 18:1/18:0 content of white adipose tissue: 2.978 and 2.646 and 5.343 and 1.908 and 1.464 and 4.498 and 3.784 and 2.039 and 3.490 and 2.759
  Ceramide 18:1/20:0 content of white adipose tissue: 1.960 and 1.699 and 2.742 and 0.969 and 1.134 and 2.311 and 2.304 and 0.962 and 2.130 and 1.825
  Ceramide 18:1/22:0 content of white adipose tissue: 2.875 and 3.855 and 6.655 and 3.344 and 2.629 and 5.839 and 6.468 and 2.833 and 3.815 and 4.292
  Ceramide 18:1/24:0 content of white adipose tissue: 2.389 and 3.918 and 5.983 and 4.215 and 2.773 and 8.001 and 8.331 and 4.355 and 4.168 and 5.733
  Ceramide 18:1/24:1 content of white adipose tissue: 6.096 and 8.629 and 13.174 and 7.744 and 4.866 and 14.789 and 13.116 and 7.511 and 9.181 and 8.543
  Ceramide 18:2/18:0 content of white adipose tissue: 1.491 and 1.389 and 1.897 and 0.793 and 0.611 and 2.474 and 2.012 and 0.838 and 2.141 and 1.309
  Ceramide 18:2/22:0 content of white adipose tissue: 1.850 and 2.082 and 3.075 and 1.861 and 1.560 and 3.228 and 3.861 and 1.939 and 2.443 and 2.309
  Ceramide 18:2/24:0 content of white adipose tissue: 2.470 and 3.270 and 4.398 and 3.698 and 2.656 and 6.741 and 6.951 and 4.253 and 4.048 and 5.078
  Ceramide 18:2/24:1 content of white adipose tissue: 3.997 and 4.831 and 5.433 and 4.596 and 3.171 and 8.097 and 7.476 and 4.878 and 5.777 and 4.939
  SM 34:1 content of white adipose tissue: 138.16 and 152.76 and 183.91 and 125.06 and 78.40 and 408.02 and 164.42 and 164.75 and 189.26 and 180.12
  SM 34:2 content of white adipose tissue: 3.94 and 4.36 and 5.23 and 3.24 and 2.75 and 11.91 and 3.96 and 4.10 and 5.05 and 4.63
  SM 36:1 content of white adipose tissue: 30.80 and 33.18 and 60.02 and 24.06 and 21.10 and 82.70 and 34.64 and 35.42 and 37.81 and 37.83
  SM 36:2 content of white adipose tissue: 13.65 and 13.63 and 9.26 and 9.31 and 4.59 and 33.15 and 15.13 and 9.69 and 16.44 and 14.20
  SM 38:1 content of white adipose tissue: 14.96 and 15.80 and 25.22 and 10.28 and 10.56 and 34.10 and 16.91 and 15.85 and 15.88 and 17.49
  SM 38:2 content of white adipose tissue: 5.67 and 4.70 and 6.95 and 2.89 and 2.82 and 9.23 and 2.88 and 2.78 and 5.06 and 4.54
  SM 40:1 content of white adipose tissue: 19.38 and 29.35 and 36.60 and 23.08 and 16.71 and 83.76 and 47.96 and 37.67 and 36.07 and 44.84
  SM 40:2 content of white adipose tissue: 7.44 and 8.09 and 11.71 and 6.74 and 5.23 and 19.76 and 11.68 and 7.96 and 9.66 and 10.63
  SM 42:1 content of white adipose tissue: 8.78 and 13.45 and 15.34 and 10.58 and 7.52 and 42.80 and 18.82 and 17.05 and 15.81 and 20.73
  SM 42:2 content of white adipose tissue: 28.15 and 38.15 and 51.68 and 31.28 and 20.55 and 119.48 and 50.63 and 47.22 and 48.80 and 50.51
  SM 42:3 content of white adipose tissue: 9.88 and 12.29 and 14.77 and 10.62 and 6.46 and 36.48 and 16.98 and 13.87 and 16.08 and 14.63
Adipose tissue; chow or HFD
  C18 ceramide or SM and other ceramide or SM species in adipose tissue: did not significantly impact
CerS1
  mode of inhibition: non-competitive inhibitor
